Results published in the Deep4Chem optical property database.
Several values for one entry are separate records, joined by “and”; a condition that tells them apart may be missing. Equal entries are not always repeated.

Experiment: solvent given as SMILES
[1] = in O=P(c1ccccc1)(c1ccccc1)c1ccccc1Oc1ccccc1P(=O)(c1ccccc1)c1ccccc1

Compound `Cc1ccccc1/C(C#N)=C/c1ccc(N(C)C)cc1` has an emission maximum (in C1CCOC1) of 484 nm, an emission maximum (in C1COCCO1) of 476 nm and an emission maximum (in CC#N) of 427 nm. For the same compound, the emission maximum (in CCCCCC) was 431 nm, the emission maximum (in CCCCCCC) was 433 nm and the emission maximum (in CCCCCO) was 495 nm. The emission maximum (in CCCCO) was 502 nm, the emission maximum (in CCCO) was 505 nm and the emission maximum (in CCO) was 509 nm. It also gave an emission maximum (in CCOC(C)=O) of 490 nm, an emission maximum (in CN(C)C=O) of 456 nm and an emission maximum (in CO) of 450 nm. It also gave an emission maximum (in CS(C)=O) of 453 nm, an emission maximum (in Cc1ccccc1) of 464 nm and an emission maximum (in ClC(Cl)Cl) of 481 nm.
`COc1ccc(-c2cc3c(s2)=CC2=C(C(F)(F)F)c4cc5sc(-c6ccc(OC)cc6)cc5n4[B-](F)(F)[N+]=32)cc1` gave an emission maximum (in C1CCOC1) of 754 nm and an emission maximum (in ClC(Cl)Cl) of 754 nm.
Work on `Fc1c(F)c(-n2c3ccccc3c3ccccc32)c(F)c(F)c1-c1nnc(-c2ccccc2)o1` yielded an emission maximum (in Cc1ccccc1) of 444 nm.
`c1ccc2c(c1)Sc1ccccc1N2c1ccc2c(c1)C1(c3ccccc3-c3ccccc31)c1cc(N3c4ccccc4Sc4ccccc43)ccc1-2` showed an emission maximum (in Cc1ccccc1) of 498 nm.
Compound `O=C([O-])c1c(Cl)c(Cl)c(Cl)c(Cl)c1-c1c2cc(I)c(=O)c(I)c-2oc2c(I)c([O-])c(I)cc12` has an emission maximum (in CC(C)O) of 576 nm, an emission maximum (in CCO) of 573 nm and an emission maximum (in CO) of 571 nm. It also gave an emission maximum (in O) of 566 nm.
`O=C([O-])c1ccccc1-c1c2cc(I)c(=O)c(I)c-2oc2c(I)c([O-])c(I)cc12` showed an emission maximum (in CC(C)O) of 557 nm, an emission maximum (in CCO) of 551 nm and an emission maximum (in CO) of 545 nm. It also gave an emission maximum (in O) of 534 nm.
In the case of `CN1C(=CC2=C([O-])C(=Cc3oc4ccccc4[n+]3C)C2=C(C#N)C#N)Sc2ccccc21`, the emission maximum (in ClC(Cl)Cl) is reported as 682 nm.
`Oc1ccc2ccccc2c1/C=N/CC/N=C/c1c(O)ccc2ccccc12` showed an emission maximum (in CC#N) of 466 nm.
`CC1=[N+]2C(=C(c3ccccc3C)c3ccc(C)n3[B-]2(F)F)C=C1c1cc2n(c1)[B-](F)(F)[N+]1=CC=CC1=C2c1c(C)cc(C)cc1C` gave an emission maximum (in C1CCCCC1) of 640 nm and an emission maximum (in CCOC(C)=O) of 679 nm.
With `Cc1c(-c2ccc(N3c4ccccc4C(C)(C)c4ccccc43)cc2)ncnc1-c1ccc(N2c3ccccc3C(C)(C)c3ccccc32)cc1` the emission maximum (in Cc1ccccc1) was 477 nm and the emission maximum [1] was 481 nm.
Compound `N#Cc1cc(/C=C/c2ccc(N(c3ccccc3)c3ccccc3)cc2)ccc1/C=C/c1ccc(/C=C/c2ccc(N(c3ccccc3)c3ccccc3)cc2)cc1` has an emission maximum (in ClCCl) of 560 nm.
With `CC1=CC(C)=[N+]2C1=C(c1c(-c3ccccn3)nc3ccccn13)c1c(C)cc(C)n1[B-]2(F)F` the emission maximum (in ClCCl) was 536 nm.
With `CCN1c2ccc(C3=CC(c4ccccc4)=[O+][B-](F)(F)O3)cc2Sc2cc(C3=CC(c4ccccc4)=[O+][B-](F)(F)O3)ccc21` the emission maximum (in ClCCl) was 639 nm.
For `CN1C(=O)/C(=C/c2ccncc2)N=C1c1ccccc1`, the emission maximum (in C1COCCO1) was 471 nm, the emission maximum (in CC#N) was 475 nm and the emission maximum (in CCO) was 477 nm. For the same compound, the emission maximum (in CCOC(C)=O) was 472 nm and the emission maximum (in O) was 477 nm.
For `Cn1cc(-c2nc3ccccc3nc2/C=C/N2CCCC2)c2ccccc21`, the emission maximum (in CC#N) was 556.97 nm, the emission maximum (in CC(C)=O) was 465.99 nm and the emission maximum (in CCO) was 548.05 nm.
With `CC(C)[Si](C#Cc1ccc(C#C[Si](C(C)C)(C(C)C)C(C)C)c2nc3c(ccc4cc5ccccc5cc43)nc12)(C(C)C)C(C)C` the emission maximum (in CCCCCC) was 466 nm.
`CCCCN1/C(=C/C=C/C2=[N+](C)c3ccccc3C2(C)C)C(C)(C)c2c1ccc1ccccc21` showed an emission maximum (in CS(C)=O) of 586 nm.
`CCOc1cccc2c1O[B-](F)(F)[n+]1c3c(c4c(c1-2)-c1ccccc1CC4)-c1ccccc1CC3` gave an emission maximum (in ClCCl) of 483 nm.
With `COc1ccc(-c2csc(/C(C#N)=C/c3ccc(Cl)cc3Cl)n2)cc1` the emission maximum (in CC#N) was 557 nm.
With `CCCCN1C(=O)c2cccc3c(OC)ccc(c23)C1=O` the emission maximum (in Cc1ccccc1) was 422 nm.
Compound `COc1ccc2c3c(cccc13)C(=O)N(C)C2=O` has an emission maximum (in C1CCCCC1) of 404 nm, an emission maximum (in C1CCOC1) of 430 nm and an emission maximum (in CC#N) of 434 nm. For the same compound, the emission maximum (in CC(C)CC(C)(C)C) was 402 nm, the emission maximum (in CCCCCCCCCCCC) was 402 nm and the emission maximum (in CCO) was 444 nm. The emission maximum (in CN(C)C=O) was 444 nm, the emission maximum (in CO) was 450 nm and the emission maximum (in CS(C)=O) was 452 nm. For the same compound, the emission maximum (in ClC(Cl)(Cl)Cl) was 412 nm and the emission maximum (in O) was 462 nm.
Work on `CCC(C)(C)c1ccc(-c2ccc3c(c2)C(CCOC)(CCOC)c2cc4c(cc2-3)C(CCOC)(CCOC)c2cc(-c3ccc(C(C)(C)CC)cc3)ccc2-4)cc1` yielded an emission maximum (in C1CCCCC1) of 390 nm.
`c1ccc(-c2nc(-c3ccccc3)nc(-c3ccc(-n4c5ccccc5c5cc6c(cc54)C4c5ccccc5C6c5ccccc54)cc3)n2)cc1` showed an emission maximum (in Cc1ccccc1) of 432 nm and an emission maximum [1] of 457 nm.
With `CC(=O)c1ccc(-c2nc3ccc(N(C)C)c(Cl)c3s2)cc1` the emission maximum (in C1CCCCC1) was 424 nm, the emission maximum (in CC#N) was 568 nm and the emission maximum (in CC(C)O) was 585.02 nm. The emission maximum (in CO) was 629 nm, the emission maximum (in CS(C)=O) was 569.23 nm and the emission maximum (in ClC(Cl)Cl) was 506 nm. For the same compound, the emission maximum (in c1ccccc1) was 474.9 nm.
`O=C1C(=Cc2ccc(Br)cc2)Oc2cccc(O)c21` showed an emission maximum (in CC#N) of 487 nm.
Work on `COC(=O)c1c(-c2cc3ccccc3oc2=O)nn(-c2cccc(C)c2)c1C(=O)OC` yielded an emission maximum (in ClCCl) of 401 nm.
Compound `O=S(=O)(c1ccccc1)c1ccc(-n2c3ccccc3c3c2c2ccccc2n3-c2ccccc2)cc1` has an emission maximum (in Cc1ccccc1) of 476 nm.
Compound `Cc1cc(C)c(N(c2ccccc2)c2ccc(S(=O)(=O)c3ccc(S(=O)(=O)c4ccc(N(c5ccccc5)c5c(C)cc(C)cc5C)cc4)cc3)cc2)c(C)c1` has an emission maximum (in Cc1ccccc1) of 450 nm and an emission maximum (in c1cc(-n2c3ccccc3c3ccccc32)nc(-n2c3ccccc3c3ccccc32)c1) of 452.12 nm.
For `N#Cc1cc(-n2c3ccccc3c3ccccc32)c(-n2c3ccccc3c3ccccc32)cc1-c1cc(-n2c3ccccc3c3ccccc32)c(-n2c3ccccc3c3ccccc32)cc1C#N`, the emission maximum (in Cc1ccccc1) was 458 nm.
Work on `CC(C)(C)c1ccc2c(c1)c1cc(C(C)(C)C)ccc1n2-c1ccccc1-c1nc(-c2ccccc2-n2c3ccc(C(C)(C)C)cc3c3cc(C(C)(C)C)ccc32)nc(-c2ccccc2P(=O)(c2ccccc2)c2ccccc2)n1` yielded an emission maximum (in C1CCOC1) of 512.54 nm, an emission maximum (in CC#N) of 546.04 nm and an emission maximum (in CC(C)=O) of 533.4 nm. The emission maximum (in CN(C)C=O) was 546.04 nm, the emission maximum (in Cc1ccccc1) was 493.22 nm and the emission maximum (in ClC(Cl)Cl) was 516.24 nm. For the same compound, the emission maximum (in ClCCl) was 529.29 nm and the emission maximum [1] was 500 nm.
In the case of `COc1c2ccccc2c(OC)c2c1c1cccc(OC)c1n2C`, the emission maximum (in C1CCCCC1) is reported as 418 nm, the emission maximum (in CC#N) is reported as 433 nm and the emission maximum (in CO) is reported as 429 nm. It also gave an emission maximum (in ClCCl) of 431 nm.
In the case of `CC(C)(C)c1ccc(-c2c(-c3ccc(-n4c5ccccc5c5ccccc54)cc3)cc(-c3ccc(-n4c5ccccc5c5ccccc54)cc3)c(-c3ccc(C(C)(C)C)cc3)c2-c2ccc(C(C)(C)C)cc2)cc1`, the emission maximum (in C1CCOC1) is reported as 367 nm.
Compound `CC(C)(C)c1ccc(C#Cc2c(C#Cc3ccc(C(C)(C)C)cc3)c3cccc4c(C#Cc5ccc(C(C)(C)C)cc5)c(C#Cc5ccc(C(C)(C)C)cc5)c5cccc2c5c34)cc1` has an emission maximum (in ClCCl) of 443 nm.
Work on `Nc1ccccc1C(=O)O` yielded an emission maximum (in C1CCCCC1) of 387 nm, an emission maximum (in C1COCCO1) of 395 nm and an emission maximum (in CC#N) of 397 nm. The emission maximum (in CC(C)=O) was 394 nm, the emission maximum (in CCO) was 407 nm and the emission maximum (in CO) was 406 nm. For the same compound, the emission maximum (in CS(C)=O) was 400 nm, the emission maximum (in O) was 400 nm and 397 nm and the emission maximum (in OCC(F)(F)F) was 423 nm. For the same compound, the emission maximum (in c1ccccc1) was 394 nm.
`CNc1cc2nc3cc(Cl)c(Cl)cc3nc2cc1NC` gave an emission maximum (in CCO) of 541 nm.
Compound `N#CC(C#N)=Cc1ccc2nc(C#Cc3ccc(N(c4ccc(C#Cc5nc6ccc(C=C(C#N)C#N)cc6s5)cc4)c4ccc(C#Cc5nc6ccc(C=C(C#N)C#N)cc6s5)cc4)cc3)sc2c1` has an emission maximum (in Cc1ccccc1) of 512 nm.
Compound `N#Cc1c(N2CCCCC2)cc(-c2ccc(Br)cc2)c2c1CCc1ccccc1-2` has an emission maximum (in C1CCOC1) of 468 nm.
Compound `CCCCn1c2ccc(C#N)cc2c2cc(C#N)cc(-c3ccc(N(c4ccccc4)c4ccccc4)cc3)c21` has an emission maximum (in C1CCCCC1) of 407 nm, an emission maximum (in C1CCOC1) of 440 nm and an emission maximum (in CC#N) of 474 nm. It also gave an emission maximum (in CCCCOCCCC) of 412 nm, an emission maximum (in CCN(CC)CC) of 410.48 nm and an emission maximum (in CCOC(C)=O) of 438 nm. For the same compound, the emission maximum (in CCOCC) was 424 nm, the emission maximum (in CN(C)C=O) was 472 nm and the emission maximum (in Cc1ccccc1) was 415 nm. The emission maximum (in ClC=C(Cl)Cl) was 420 nm and the emission maximum (in ClCCl) was 447 nm.
Work on `N#Cc1c(N2CCCCC2)cc(-c2cccs2)c2c1CCc1ccccc1-2` yielded an emission maximum (in C1CCOC1) of 474 nm.
`Cc1cn2cc(-c3ccc([N+](=O)[O-])cc3)[n-][n+]2c1` showed an emission maximum (in ClCCl) of 575 nm.
For `CCCCCCc1cc2/c(=C(\C#N)C(=O)OC)s/c(=c3/s/c(=C(/C#N)C(=O)OC)c4cc(CCCCCC)sc34)c2s1`, the emission maximum (in Cc1ccccc1) was 605 nm.
With `COc1ccc2n1[B-](F)(F)[N+]1=C(c3ccccc3)C=CC1=C2c1ccc(C)cc1` the emission maximum (in C1CCCCC1) was 553 nm, the emission maximum (in C1CCOC1) was 555 nm and the emission maximum (in C1COCCO1) was 556 nm. For the same compound, the emission maximum (in CCOC(C)=O) was 552 nm, the emission maximum (in CO) was 550 nm and the emission maximum (in Cc1ccccc1) was 558 nm. The emission maximum (in ClC(Cl)Cl) was 557 nm.
Compound `Cc1ccc(-n2c(-c3ccc(N(c4ccc(-c5ccc(N(c6ccc(-c7nc8c9ccccc9c9ccccc9c8n7-c7ccc(C)cc7)cc6)c6ccc(-c7nc8c9ccccc9c9ccccc9c8n7-c7ccc(C)cc7)cc6)cc5)cc4)c4ccc(-c5nc6c7ccccc7c7ccccc7c6n5-c5ccc(C)cc5)cc4)cc3)nc3c4ccccc4c4ccccc4c32)cc1` has an emission maximum (in ClCCl) of 435 nm.
In the case of `CCOC(=O)c1ccccc1-c1c2ccc(=[N+](CC)CC)cc-2oc2c1oc1cc(N)ccc12`, the emission maximum (in CCO) is reported as 640 nm, the emission maximum (in ClCCl) is reported as 627 nm and the emission maximum (in O) is reported as 645 nm.
In the case of `CC(=O)Nc1ccc(S(=O)(=O)O)c(/N=N/c2c(O)c3ccccc3n(C)c2=O)c1`, the emission maximum (in C1CCOC1) is reported as 523 nm, the emission maximum (in CC(C)=O) is reported as 516 nm and the emission maximum (in CCOC(C)=O) is reported as 523 nm. The emission maximum (in CO) was 512 nm, the emission maximum (in CS(C)=O) was 526 nm and the emission maximum (in Cc1ccccc1) was 517 nm. The emission maximum (in ClCCl) was 528 nm and the emission maximum (in O) was 549 nm.
